What all share (format): cell-based
One test has as its system HCC827 cells. Briefly: Cell growth inhibition (CellTiter-Glo, 3 days) in HCC827. Conditions: Homo sapiens, 72 h, 3 days after administration. Put shortly:
(§1)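 Growth inhibition was scored by CellTiter-Glo luminescence after 3-day compound exposure at various concentrations. Cells were plated at 5000/well the day before treatment: A431 in DMEM and HCC827 in RPMI, each with 10% FBS.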
A general note: In ATP-based viability assays light output follows the ATP content of the culture.

Test [1] relates to HCC827-SVD cells (human EGFR exon 20 insertion mutant D770_N771 insSVD). Description: Cell growth inhibition (CellTiter-Glo, 3 days) in HCC827-SVD. The settings on record: 72 h, 3 days after administration. The essentials: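 HCC827 cells carrying lentiviral codon-optimized EGFR D770_N771 insSVD, with endogenous EGFR knocked out by CRISPR (single clone), seeded at 5000 cells/well in RPMI with 10% FBS. Viability read by CellTiter-Glo luminescence.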

The subject of test [2] is HCC827-ASV cells (human EGFR exon 20 insertion mutant A769_D770insASV). Briefly: Cell growth inhibition (CellTiter-Glo, 3 days) in HCC827-ASV. The settings on record: 72 h, 3 days after administration. Put shortly: (§2)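 Growth inhibition used a CellTiter-Glo luminescence read-out after 3 days of compound exposure at various concentrations. Cells were plated the day before at 5000/well in RPMI plus 10% FBS. The lines are HCC827 transduced by lentivirus with codon-optimized EGFR ASV or ERBB2 YVMA exon 20 insertions.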

Test [3] has as its system HCC827-YVMA cells (human ERBB2 exon20 insertion mutant A775_G776ins YVMA). Description: Cell growth inhibition (CellTiter-Glo, 3 days) in HCC827-YVMA. Conditions: 72 h, 3 days after administration. The essentials: as §2
The test system of another test is A431 cells. Briefly: Cell growth inhibition (CellTiter-Glo, 3 days) in A431. The settings on record: Homo sapiens, A-431, 72 h, 3 days after administration. The essentials:
as §1

As to `C=CC(=O)N1CCC(Nc2cc3c(Nc4ccc(Oc5ccnc(N6CCO[C@H](C)C6)c5)cc4F)ncnc3cc2OC)CC1` [Example 133, (R)-1-(4-((4-((2-fluoro-4-((2-(2-methylmorpholino)pyridin-4-yl)oxy)phenyl)amino)-7-methoxyquinazolin-6-yl)amino)piperidin-1-yl)prop-2-en-1-one], the GI50 is 100 to 300 nM in the test on HCC827 cells; under 30 nM in test [1]; under 30 nM in test [2]; under 30 nM in test [3]; 600 to 1000 nM in the test on A431 cells.

As to `C=CC(=O)N1CCC(Nc2cc3c(Nc4ccc(Oc5ccnc(N6C[C@H]7C[C@@H]6CO7)c5)cc4F)ncnc3cc2OC)CC1` [Example 134, 1-(4-((4-((4-((2-((1R,4R)-2-oxa-5-azabicyclo[2.2.1]heptan-5-yl)pyridin-4-yl)oxy)-2-fluorophenyl)amino)-7-methoxyquinazolin-6-yl)amino)piperidin-1-yl)prop-2-en-1-one], the GI50 in the test on HCC827 cells is 100 to 300 nM; in test [1], 30 to 60 nM; in test [2], under 30 nM; in test [3], 30 to 60 nM; in the test on A431 cells, 600 to 1000 nM.

With `C=CC(=O)N1CCC(Nc2cc3c(Nc4ccc(Oc5ccnc(N6CCOC[C@@H]6C)c5)cc4F)ncnc3cc2OC)CC1` [Example 135, (S)-1-(4-((4-((2-fluoro-4-((2-(3-methylmorpholino)pyridin-4-yl)oxy)phenyl)amino)-7-methoxyquinazolin-6-yl)amino)piperidin-1-yl)prop-2-en-1-one], the GI50 is 300 to 600 nM in the test with HCC827 cells; 60 to 100 nM in test [1]; under 30 nM in test [2]; 30 to 60 nM in test [3]; at least 1000 nM in the test on A431 cells.

For the compound `C=CC(=O)N1CCC(Nc2cc3c(Nc4ccc(Oc5ccnc(N6C7CCC6COC7)c5)cc4F)ncnc3cc2OC)CC1` [Example 136, 1-(4-((4-((4-((2-(3-oxa-8-azabicyclo[3.2.1]octan-8-yl)pyridin-4-yl)oxy)-2-fluorophenyl)amino)-7-methoxyquinazolin-6-yl)amino)piperidin-1-yl)prop-2-en-1-one], the GI50 with HCC827 cells was in the range of 300 to 600 nM; in test [1], 30 to 60 nM; in test [2] it was 30 to 60 nM; in test [3], 30 to 60 nM; in the test on A431 cells, 600 to 1000 nM.

With `C=CC(=O)N1CCC(Nc2cc3c(Nc4ccc(Oc5ccnc(N6CCOC[C@H]6C)c5)cc4F)ncnc3cc2OC)CC1` [Example 137, (R)-1-(4-((4-((2-fluoro-4-((2-(3-methylmorpholino)pyridin-4-yl)oxy)phenyl)amino)-7-methoxyquinazolin-6-yl)amino)piperidin-1-yl)prop-2-en-1-one], the GI50 in the test with HCC827 cells was at least 1000 nM; in test [1], 100 to 300 nM; in test [2], 100 to 300 nM; in test [3] it was 300 to 600 nM; in the test on A431 cells, at least 1000 nM.

Turning to `C=CC(=O)N1CCC(Nc2cc3c(Nc4ccc(Oc5ccnc(N6CCOC(C)(C)C6)c5)cc4F)ncnc3cc2OC)CC1` [Example 138, 1-(4-((4-((4-((2-(2,2-dimethylmorpholino)pyridin-4-yl)oxy)-2-fluorophenyl)amino)-7-methoxyquinazolin-6-yl)amino)piperidin-1-yl)prop-2-en-1-one], the GI50 with HCC827 cells is 100 to 300 nM; in test [1], under 30 nM; in test [2], under 30 nM; in test [3], under 30 nM; in the test with A431 cells, at least 1000 nM.

`C=CC(=O)N1CCC(Nc2cc3c(Nc4ccc(Oc5ccnc(N6CC(O)C6)c5)cc4F)ncnc3cc2OC)CC1` [Example 139, 1-(4-((4-((2-fluoro-4-((2-(3-hydroxyazetidin-1-yl)pyridin-4-yl)oxy)phenyl)amino)-7-methoxyquinazolin-6-yl)amino)piperidin-1-yl)prop-2-en-1-one]: the GI50 in the test with HCC827 cells lay within 100 to 300 nM; in test [1], 100 to 300 nM; in test [2], 60 to 100 nM; in test [3], 100 to 300 nM; with A431 cells, 300 to 600 nM.

The term GI50 denotes the concentration giving 50% growth inhibition. A high value points to less potent growth inhibition.

Values taken from patent US20240398805A1, “QUINAZOLINE DERIVED COMPOUNDS AS EGFR INHIBITORS AND THEIR USES THEREOF” (ACCUTAR BIOTECHNOLOGY INC., priority 2021, published 2024).
